Test results from patent US12084458B2, “Substituted pyridines, pyridazines, and pyrimidines as TYK2 inhibitors” (Sudo Biosciences Limited, priority 2021, dated 2024).
pIC50: −log10 of the molar value. Where two headings read alike, the source gives them in different places.

Legend:
Assay type in all cases: cell-based
[1] = test system: HEK-Blue IL-23 cells (IL-23-stimulated STAT3 SEAP reporter; TYK2 JH2); test: HEK-Blue IL-23 SEAP reporter assay for profiling TYK2 pseudokinase (JH2) inhibition; settings: 10 ng/mL human recombinant IL-23, SEAP reporter, read-out: IL23 (TYK2 inhibitory activity, IC50)
Outline: (§1)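 SEAP read-out (QUANTI-Blue) after cytokine stimulation: IL-23 line given 10 ng/mL human IL-23 for 22-24 h; IFNα/β line given 1 ng/mL human IFNα for 16-18 h. Serially diluted compounds added 60 min before cytokine, to cells plated 20-22 h beforehand.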

[2] = test system: HEK-Blue IFNγ reporter cells (IFNγ-stimulated STAT1 SEAP reporter); test: HEK-Blue IFNγ SEAP reporter assay for determining selectivity; settings: 50 ng/mL human recombinant IFNγ, read-out: IFN-γ (SEAP selectivity, IC50)
Procedure: (§2) Example B-3: HEK-Blue™ IL-2 and IFNγ Reporter Assays for Determining Selectivity
(§3) HEK-Blue™ IL-2 and IFNγ reporter cells with a stably-integrated cytokine receptor and STAT5 or STAT1 express STAT-inducible secreted embryonic alkaline phosphatase (SEAP) reporter gene upon cytokine stimulation. These cells were plated in DMEM (Gibco) containing 10% heat-inactivated FBS (Gibco) and 100 U/mL PenStrep (Gibco) at 37° C. under 5% CO2 conditions for 20-22 hours. The cells were then pretreated with serially diluted test compounds for 60 min prior to stimulation with either 4 ng/mL human recombinant IL-2 (Miltenyl Biotech) or 50 ng/mL human recombinant IFNγ (InvivoGen) for 24 hours. SEAP induction was measured using the QUANTI-Blue™ Solution (InvivoGen) according to the manufacturer's instructions.

[3] = test system: HEK-Blue IFNα/β cells (IFNα-stimulated STAT1 SEAP reporter; TYK2 JH2); test: HEK-Blue IFNα/β SEAP reporter assay for profiling TYK2 pseudokinase (JH2) inhibition; settings: 1 ng/mL human recombinant IFNα, read-out: IFNα (TYK2 inhibitory activity, IC50)
Outline: as §1

[4] = test system: HEK-Blue IL-2 reporter cells (IL-2-stimulated STAT5 SEAP reporter); test: HEK-Blue IL-2 SEAP reporter assay for determining selectivity; settings: 4 ng/mL human recombinant IL-2
Procedure: as §2, §3

SMILES	pIC50 [1]	pIC50 ([2]; Homo sapiens, HEK-Blue)	pIC50 ([3]; Homo sapiens, HEK-Blue)	pIC50 [4]	pIC50 [2]	pIC50 [3]
[2H]C([2H])([2H])NC(=O)c1nnc(NC(=O)[C@@H]2CC2(F)F)cc1Nc1nccc2c1N(C)Cc1nn(C)nc1-2 [Compound 68, (S)-6-(2,2-difluorocyclopropane-1-carboxamido)-4-((2,5-dimethyl-4,5-dihydro-2H-[1,2,3]triazolo[4,5-c][1,7]naphthyridin-6-yl)amino)-N-(methyl-d3)pyridazine-3-carboxamide]	> 7.52	6.00 to 6.52	> 7.52	< 6.00		
[2H]C([2H])([2H])NC(=O)c1nnc(NC(=O)[C@H]2CC2(F)F)cc1Nc1nccc2c1N(C)Cc1nn(C)nc1-2 [Compound 69, (R)-6-(2,2-difluorocyclopropane-1-carboxamido)-4-((2,5-dimethyl-4,5-dihydro-2H-[1,2,3]triazolo[4,5-c][1,7]naphthyridin-6-yl)amino)-N-(methyl-d3)pyridazine-3-carboxamide]	> 7.52		6.52 to 7.52	< 6.00	< 6.00	
[2H]C([2H])([2H])NC(=O)c1cnc(NC(=O)[C@@H]2CC2(F)F)cc1Nc1cccc2c1N(C)Cc1nn(C)nc1-2 [Compound 70, (S)-6-(2,2-difluorocyclopropane-1-carboxamido)-4-((2,5-dimethyl-4,5-dihydro-2H-[1,2,3]triazolo[4,5-c]quinolin-6-yl)amino)-N-(methyl-d3)nicotinamide]	> 7.52	< 6.00	6.52 to 7.52	< 6.00		
[2H]C([2H])([2H])NC(=O)c1nnc(NC(=O)[C@H]2CC2(F)F)cc1Nc1nccc2c1N(C)Cc1nn(C)nc1-2 [Compound 71, (R)-6-(2,2-difluorocyclopropane-1-carboxamido)-4-((2,5-dimethyl-4,5-dihydro-2H-[1,2,3]triazolo[4,5-c][1,7]naphthyridin-6-yl)amino)-N-(methyl-d3)pyridazine-3-carboxamide]	> 7.52			< 6.00	6.52 to 7.52	> 7.52
[2H]C([2H])([2H])NC(=O)c1nnc(NC(=O)C2CC2)cc1Nc1cc(F)cc2c1N(C)Cc1nc(C)nn1-2 [Compound 90, 6-(cyclopropanecarboxamido)-4-((8-fluoro-2,5-dimethyl-4,5-dihydro-[1,2,4]triazolo[1,5-a]quinoxalin-6-yl)amino)-N-(methyl-d3)pyridazine-3-carboxamide]	> 7.52	6.52 to 7.52	6.52 to 7.52	< 6.00		
[2H]C([2H])([2H])NC(=O)c1nnc(NC(=O)C2CC2)cc1Nc1nccc2c1N(C)Cc1nn(C([2H])([2H])[2H])nc1-2 [Compound 91, 6-(cyclopropanecarboxamido)-N-(methyl-d3)-4-((5-methyl-2-(methyl-d3)-4,5-dihydro-2H-[1,2,3]triazolo[4,5-c][1,7]naphthyridin-6-yl)amino)pyridazine-3-carboxamide]	> 7.52	6.52 to 7.52	> 7.52	< 6.00		
[2H]C([2H])([2H])NC(=O)c1cnc(NC(=O)C2CC2)cc1Nc1nccc2c1N(C)Cc1nn(C([2H])([2H])[2H])nc1-2 [Compound 92, 6-(cyclopropanecarboxamido)-N-(methyl-d3)-4-((5-methyl-2-(methyl-d3)-4,5-dihydro-2H-[1,2,3]triazolo[4,5-c][1,7]naphthyridin-6-yl)amino)nicotinamide]	> 7.52	6.52 to 7.52	> 7.52	6.00 to 6.52		
[2H]C([2H])([2H])NC(=O)c1nnc(NC(=O)C2CC2)cc1Nc1nccc2c1N(C)Cc1nn(CC)nc1-2 [Compound 93, 6-(cyclopropanecarboxamido)-4-((2-ethyl-5-methyl-4,5-dihydro-2H-[1,2,3]triazolo[4,5-c][1,7]naphthyridin-6-yl)amino)-N-(methyl-d3)pyridazine-3-carboxamide]	> 7.52	6.00 to 6.52	> 7.52	6.00 to 6.52		
[2H]C([2H])([2H])NC(=O)c1nnc(NC(=O)C2CC2)cc1Nc1nccc2c1N(C)C([2H])([2H])c1nn(C)nc1-2 [Compound 96, 6-(cyclopropanecarboxamido)-4-((2,5-dimethyl-4,5-dihydro-2H-[1,2,3]triazolo[4,5-c][1,7]naphthyridin-6-yl-4,4-d2)amino)-N-(methyl-d3)pyridazine-3-carboxamide]	> 7.52	6.52 to 7.52	> 7.52	6.00 to 6.52		
[2H]C([2H])([2H])NC(=O)c1cnc(NC(=O)C2CC2)cc1Nc1nccc2c1N(C)C([2H])([2H])c1nn(C)nc1-2 [Compound 97, 6-(cyclopropanecarboxamido)-4-((2,5-dimethyl-4,5-dihydro-2H-[1,2,3]triazolo[4,5-c][1,7]naphthyridin-6-yl-4,4-d2)amino)-N-(methyl-d3)nicotinamide]	> 7.52	6.00 to 6.52	> 7.52	< 6.00		
[2H]C([2H])([2H])NC(=O)c1cnc(NC(=O)NC)cc1Nc1cc(F)cc2c1N(C)Cc1nc(C)nn1-2 [Compound 101, 4-((8-fluoro-2,5-dimethyl-4,5-dihydro-[1,2,4]triazolo[1,5-a]quinoxalin-6-yl)amino)-N-(methyl-d3)-6-(3-methylureido)nicotinamide]	6.52 to 7.52	< 6.00	6.00 to 6.52	< 6.00		
[2H]C([2H])([2H])NC(=O)c1cnc(Nc2cc(C)nc(C)n2)cc1Nc1cc(F)cc2c1N(C)Cc1nc(C)nn1-2 [Compound 102, 6-((2,6-dimethylpyrimidin-4-yl)amino)-4-((8-fluoro-2,5-dimethyl-4,5-dihydro-[1,2,4]triazolo[1,5-a]quinoxalin-6-yl)amino)-N-(methyl-d3)nicotinamide]	> 7.52	6.52 to 7.52	> 7.52	6.00 to 6.52		
[2H]C([2H])([2H])NC(=O)c1nnc(NC(=O)C2CC2)cc1Nc1ccc(F)c2c1N(C)Cc1nc(C)nn1-2 [Compound 105, 6-(cyclopropanecarboxamido)-4-((9-fluoro-2,5-dimethyl-4,5-dihydro-[1,2,4]triazolo[1,5-a]quinoxalin-6-yl)amino)-N-(methyl-d3)pyridazine-3-carboxamide]	> 7.52	< 6.00	6.52 to 7.52	< 6.00		
[2H]C([2H])([2H])NC(=O)c1cnc(NC(=O)C2CC2)cc1Nc1ccc(F)c2c1N(C)Cc1nc(C)nn1-2 [Compound 107, 6-(cyclopropanecarboxamido)-4-((9-fluoro-2,5-dimethyl-4,5-dihydro-[1,2,4]triazolo[1,5-a]quinoxalin-6-yl)amino)-N-(methyl-d3)nicotinamide]	> 7.52	< 6.00	6.52 to 7.52	< 6.00		
[2H]C([2H])([2H])NC(=O)c1nnc(NC(=O)NC)cc1Nc1nccc2c1N(C)Cc1nn(C)nc1-2 [Compound 108, 4-((2,5-dimethyl-4,5-dihydro-2H-[1,2,3]triazolo[4,5-c][1,7]naphthyridin-6-yl)amino)-N-(methyl-d3)-6-(3-methylureido)pyridazine-3-carboxamide]	> 7.52	< 6.00	> 7.52	6.52 to 7.52		
